We go through one substance from US10827753B2, “Compositions and methods for controlling nematodes” (Monsanto Technology LLC, priority 2007, dated 2020).

Marks after values point to notes of the source that are not given here.

In series [1] the test system is Meloidogyne incognita (RKN). The experiment in a line: Seed treatment test of root knot nematode on cucumber plants. The note with it: 10 mg ai/gram seed, cucumber seeds (positive control). It is filed as in vivo. On the procedure:
(§1) For a given concentration the chemical is dissolved in 500 ul of acetone and one gram of cucumber seed (RKN test) or soybean seed (SCN test) is added (e.g., 20 mg active ingredient in 500 ul acetone plus 1 gram of seed). The seed solutions are agitated until all seeds were thoroughly covered with the chemical solution. The acetone is then allowed to evaporate by air drying the seeds. The seeds are planted in 2-inch pots containing sandy soil and then the pots are inoculated with 1000 Meloidogyne incognita (RKN) or 1000 Heterodera glycines (SCN) eggs per pot three days after planting. Plants are rated for galling 14 days after egg inoculation for RKN or 28 days after egg inoculation for SCN.

Series [2] deals with Heterodera glycines (SCN). The experiment in a line: Seed treatment test of soybean cyst nematode on soybean plants. In kind it is in vivo. The note with it: test a. On the procedure: as §1
Another series deals with mice. Particulars: cited from earlier work.

For abamectin, the “percent control (galling reduction) relative to the control blank treatment” value in series [1] came out at 84%. The “percent cyst reduction relative to control blank treatment” value is on record as −14^a percent in series [2] (0.375 mg al/gram seed) and −24^a percent in series [2] (1.5 mg al/gram seed). The “oral LD50 in mice” value with mice was 13.6 mg/kg.
